The values that follow come from patent US11000033B2, “Ketone or oxime compound, and herbicide” (NISSAN CHEMICAL CORPORATION, priority 2014, dated 2021).

Holding throughout (type): in vivo
Series [1] has as its system Echinochloa oryzacola Vasing. Nature of the series: Test Example 1: herbicidal activity, application before weed generation in submerged conditions (symbol A). The conditions noted are these: application herbicide amount 320 g/ha. The method in brief: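 Flooded alluvial soil (4 cm water) was mixed-sown with the three weed species, and 2.5-leaf rice seedlings were transplanted. On sowing day, a water-diluted emulsion at a predetermined rate was applied to the water surface. After 3 weeks in a 25–30 °C greenhouse, effect was scored 0–5.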

For the next series, the system named is transplanted rice plant. Nature of the series: Test Example 1: effect on crop, application before weed generation in submerged conditions (symbol a). The conditions noted are these: application herbicide amount 320 g/ha. The method in brief:
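Alluvial soil pots flooded to 4 cm water, sown with Echinochloa oryzacola, Scirpus juncoides and Monochoria vaginalis, then transplanted with 2.5 leaf stage rice seedlings; pre-emergence application. Greenhouse 25° C. to 30° C.; scored 0–5 by herbicidal ratio 3 weeks after application.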

The next series deals with Monochoria vaginalis. Description: Test Example 2: herbicidal activity, application during weed generation in submerged conditions (symbol C). The conditions noted are these: Table 23; application herbicide amount 320 g/ha; grade 0-5 by criteria of Test Example 1. An outline of the steps:
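Flooded-soil post-emergence test: emulsion of compound, water-diluted to target rate, applied to paddy water surface at 1–2 leaf stage of mixed-sown weeds (alluvial soil, 4 cm water, 25–30° C. greenhouse); visual rating 3 weeks after application.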

The next series relates to Digitaria ciliaris. Nature of the series: Test Example 4: herbicidal effect by soil treatment (symbol F). The settings on record: application herbicide amount 320 g/ha. An outline of the steps: (§1)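 Seeds were sown in sterilized diluvial soil, covered with about 1.5 cm of soil, and the soil surface was sprayed with a water-diluted emulsion of the compound at a predetermined rate. Plants grew in a greenhouse at 25° C. to 30° C.; effects were scored visually 3 weeks after application.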

Series [2] concerns Echinochloa crus-galli var. crus-galli. Description: Test Example 4: herbicidal effect by soil treatment (symbol H). The settings on record: application herbicide amount 320 g/ha. The method in brief:
as §1

For another series, the system named is Avena fatua. Description: Test Example 4: herbicidal effect by soil treatment (symbol I). The settings on record: application herbicide amount 320 g/ha. The method in brief: as §1
The test system of series [3] is Lolium multiflorum Lam. Description: Test Example 4: herbicidal effect by soil treatment (symbol K). The conditions noted are these: application herbicide amount 320 g/ha. The method in brief:
as §1

In series [4] the test system is Apera spica-venti. Description: Test Example 4: herbicidal effect by soil treatment (symbol L). The settings on record: application herbicide amount 320 g/ha. The method in brief:
as §1

Another series concerns Chenopodium album. Nature of the series: Test Example 4: herbicidal effect by soil treatment (symbol O). The conditions noted are these: application herbicide amount 320 g/ha. The method in brief: as §1
The subject of series [5] is Stellaria media. Nature of the series: Test Example 4: herbicidal effect by soil treatment (symbol P). The conditions noted are these: application herbicide amount 320 g/ha. The method in brief:
as §1

For the next series, the system named is Veronica persica. Description: Test Example 4: herbicidal effect by soil treatment (symbol R). The conditions noted are these: application herbicide amount 320 g/ha. The method in brief: as §1
Another series concerns soybean. Nature of the series: Test Example 4: effect on crop by soil treatment (symbol d). The settings on record: application herbicide amount 320 g/ha. An outline of the steps:
(§2)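 Crop seeds, among them rice, wheat, beet and rapeseed, were sown in sterilized diluvial soil and covered with about 1.5 cm of soil. Boxes were kept in a greenhouse at 25° C. to 30° C. for plant growth.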

Another series has as its system rice. Description: Test Example 4: effect on crop by soil treatment (symbol b). The settings on record: application herbicide amount 320 g/ha. The method in brief:
as §2

The subject of the next series is rapeseed. Nature of the series: Test Example 4: effect on crop by soil treatment (symbol g). The settings on record: application herbicide amount 320 g/ha. An outline of the steps: as §2
For series [6], the system named is Echinochloa crus-galli var. crus-galli. Nature of the series: Test Example 5: herbicidal effect by foliage application, plastic box (symbol H). The settings on record: 320 g/ha, 3 weeks after application. An outline of the steps:
(§3)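 Visual herbicidal score, taken three weeks post-application, of seedlings sprayed on the foliage with water-diluted emulsion at a predetermined amount; plants were 14 days old, greenhouse-raised at 25° C. to 30° C.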

In series [7] the test system is Lolium multiflorum Lam. Nature of the series: Test Example 5: herbicidal effect by foliage application, plastic box (symbol K). The settings on record: 320 g/ha, 3 weeks after application. An outline of the steps: as §3
Series [8] deals with Apera spica-venti. Nature of the series: Test Example 5: herbicidal effect by foliage application, plastic box (symbol L). The conditions noted are these: 320 g/ha, 3 weeks after application. An outline of the steps:
as §3

Series [9] deals with Stellaria media. Description: Test Example 5: herbicidal effect by foliage application, plastic box (symbol P). The conditions noted are these: 320 g/ha, 3 weeks after application. An outline of the steps: as §3

In the case of `CCOC(=O)C(C(=O)c1ccccn1)C1CC(O)=C(c2c(C)cc(C)cc2C)C1=O` (stereo not drawn) [2-013], the “Herbicidal effect grade, A: Echinochloa oryzacola Vasing.” value in series [1] is listed as 0 (Herbicidal ratio of 5% or lower (almost no effect)). Moreover, the “Effect grade on crop, a: transplanted rice plant” value (from here on “Effect grade on crop”) in the series with transplanted rice plant was 0 (Herbicidal ratio of 5% or lower (almost no effect)). For the same compound, in the series on Monochoria vaginalis, the “Herbicidal effect grade, C: Monochoria vaginalis” value (“Herbicidal effect grade, C” below) is reported as 0 (Herbicidal ratio of 5% or lower (almost no effect)). In addition, the “F: Digitaria ciliaris, herbicidal effect grade” value (shortened to “F: Digitaria ciliaris”) in the series with Digitaria ciliaris is 1 (Herbicidal ratio of 5% or higher and lower than 20%). The “H: Echinochloa crus-galli var. crus-galli, herbicidal effect grade” value in series [2] is 1 (Herbicidal ratio of 5% or higher and lower than 20%); in series [6] it was 5 (Herbicidal ratio of 90% or more (almost completely withered)). Moreover, the “I: Avena fatua, herbicidal effect grade” value in the series with Avena fatua is recorded as 0 (Herbicidal ratio of 5% or lower (almost no effect)). Besides, the “K: Lolium multiflorum Lam., herbicidal effect grade” value with Lolium multiflorum Lam. [3] was 1 (Herbicidal ratio of 5% or higher and lower than 20%); with Lolium multiflorum Lam. [7] it was 5 (Herbicidal ratio of 90% or more (almost completely withered)). Further, the “L: Apera spica-venti, herbicidal effect grade” value (shortened to “L: Apera spica-venti”) in the series on Apera spica-venti [4] is 0 (Herbicidal ratio of 5% or lower (almost no effect)); with Apera spica-venti [8], 4 (Herbicidal ratio of 70% or higher and lower than 90%). For the same compound, the “O: Chenopodium album, herbicidal effect grade” value (from here on “O: Chenopodium album”) in the series with Chenopodium album is recorded as 0 (Herbicidal ratio of 5% or lower (almost no effect)). The “P: Stellaria media, herbicidal effect grade” value (“P: Stellaria media” for short) with Stellaria media [5] was 0 (Herbicidal ratio of 5% or lower (almost no effect)); with Stellaria media [9], 1 (Herbicidal ratio of 5% or higher and lower than 20%). The “R: Veronica persica, herbicidal effect grade” value (shortened to “R: Veronica persica”) with Veronica persica is 0 (Herbicidal ratio of 5% or lower (almost no effect)). Also, the “d: soybean, effect on crop grade” value in the series with soybean is 0 (Herbicidal ratio of 5% or lower (almost no effect)). For the same compound, in the series on rice, the “b: directly sowed rice plant, effect on crop grade” value (“b: directly sowed rice plant” for short) was 5 (Herbicidal ratio of 90% or more (almost completely withered)). Besides, in the series on rapeseed, the “g: rapeseed, effect on crop grade” value is recorded as 0 (Herbicidal ratio of 5% or lower (almost no effect)).
Turning to `CON=CC1CC(O)=C(c2c(C)cc(C)cc2C)C1=O` (mixture of isomers) [3-001], the “Herbicidal effect grade, A: Echinochloa oryzacola Vasing.” value in series [1] is listed as 0 (Herbicidal ratio of 5% or lower (almost no effect)). In the series with transplanted rice plant, the “Effect grade on crop” value is 0 (Herbicidal ratio of 5% or lower (almost no effect)). Besides, the “Herbicidal effect grade, C” value in the series with Monochoria vaginalis is given as 0 (Herbicidal ratio of 5% or lower (almost no effect)). Also, the “F: Digitaria ciliaris” value with Digitaria ciliaris was 2 (Herbicidal ratio of 20% or higher and lower than 40%). Also, the “H: Echinochloa crus-galli var. crus-galli, herbicidal effect grade” value in [2] is 0 (Herbicidal ratio of 5% or lower (almost no effect)); in [6], 4 (Herbicidal ratio of 70% or higher and lower than 90%). Further, in the series on Avena fatua, the “I: Avena fatua, herbicidal effect grade” value was 0 (Herbicidal ratio of 5% or lower (almost no effect)). Also, the “K: Lolium multiflorum Lam., herbicidal effect grade” value in the series with Lolium multiflorum Lam. [3] is 4 (Herbicidal ratio of 70% or higher and lower than 90%); in the series with Lolium multiflorum Lam. [7] it was 4 (Herbicidal ratio of 70% or higher and lower than 90%). For the same compound, the “L: Apera spica-venti” value was 5 (Herbicidal ratio of 90% or more (almost completely withered)) in the series on Apera spica-venti [4]; 3 (Herbicidal ratio of 40% or higher and lower than 70%) with Apera spica-venti [8]. Besides, in the series on Chenopodium album, the “O: Chenopodium album” value was 0 (Herbicidal ratio of 5% or lower (almost no effect)). Besides, the “P: Stellaria media” value with Stellaria media [5] and with Stellaria media [9] was 0 (Herbicidal ratio of 5% or lower (almost no effect)) in each case. The “R: Veronica persica” value with Veronica persica is on record as 0 (Herbicidal ratio of 5% or lower (almost no effect)). Moreover, the “d: soybean, effect on crop grade” value with soybean is 0 (Herbicidal ratio of 5% or lower (almost no effect)). In addition, the “b: directly sowed rice plant” value with rice is 2 (Herbicidal ratio of 20% or higher and lower than 40%). The “g: rapeseed, effect on crop grade” value in the series with rapeseed is 0 (Herbicidal ratio of 5% or lower (almost no effect)).
As to `Cc1cc(C)c(C2=C(O)CC(CC(=O)C(C)(C)C)C2=O)c(C)c1` (stereo not drawn) [2-022], the “Herbicidal effect grade, A: Echinochloa oryzacola Vasing.” value in series [1] is 1 (Herbicidal ratio of 5% or higher and lower than 20%). In addition, the “Effect grade on crop” value with transplanted rice plant was 3 (Herbicidal ratio of 40% or higher and lower than 70%). In the series on Monochoria vaginalis, the “Herbicidal effect grade, C” value is listed as 0 (Herbicidal ratio of 5% or lower (almost no effect)). In addition, the “F: Digitaria ciliaris” value with Digitaria ciliaris is listed as 0 (Herbicidal ratio of 5% or lower (almost no effect)). In addition, the “H: Echinochloa crus-galli var. crus-galli, herbicidal effect grade” value is 0 (Herbicidal ratio of 5% or lower (almost no effect)) in series [2]; 1 (Herbicidal ratio of 5% or higher and lower than 20%) in [6]. In addition, the “I: Avena fatua, herbicidal effect grade” value in the series on Avena fatua is given as 0 (Herbicidal ratio of 5% or lower (almost no effect)). Further, the “K: Lolium multiflorum Lam., herbicidal effect grade” value in the series with Lolium multiflorum Lam. [3] was 4 (Herbicidal ratio of 70% or higher and lower than 90%); in the series with Lolium multiflorum Lam. [7], 5 (Herbicidal ratio of 90% or more (almost completely withered)). Besides, the “L: Apera spica-venti” value in the series on Apera spica-venti [4] was 0 (Herbicidal ratio of 5% or lower (almost no effect)); in the series on Apera spica-venti [8] it was 2 (Herbicidal ratio of 20% or higher and lower than 40%). For the same compound, in the series with Chenopodium album, the “O: Chenopodium album” value is 0 (Herbicidal ratio of 5% or lower (almost no effect)). Also, the “P: Stellaria media” value in the series with Stellaria media [5] and in the series on Stellaria media [9] was 0 (Herbicidal ratio of 5% or lower (almost no effect)) in each case. The “R: Veronica persica” value with Veronica persica is recorded as 0 (Herbicidal ratio of 5% or lower (almost no effect)). Also, the “d: soybean, effect on crop grade” value in the series with soybean is 0 (Herbicidal ratio of 5% or lower (almost no effect)). In addition, the “b: directly sowed rice plant” value in the series with rice was 4 (Herbicidal ratio of 70% or higher and lower than 90%). In addition, in the series on rapeseed, the “g: rapeseed, effect on crop grade” value was 0 (Herbicidal ratio of 5% or lower (almost no effect)).
With `Cc1cc(C)c(C2=C(O)CC(CC(=O)C3CCCCC3)C2=O)c(C)c1` (stereo not drawn) [2-030], the “Herbicidal effect grade, A: Echinochloa oryzacola Vasing.” value in series [1] is 4 (Herbicidal ratio of 70% or higher and lower than 90%). Besides, the “Effect grade on crop” value with transplanted rice plant was 3 (Herbicidal ratio of 40% or higher and lower than 70%). Moreover, in the series with Monochoria vaginalis, the “Herbicidal effect grade, C” value was 0 (Herbicidal ratio of 5% or lower (almost no effect)). Further, the “F: Digitaria ciliaris” value in the series on Digitaria ciliaris is 4 (Herbicidal ratio of 70% or higher and lower than 90%). In addition, the “H: Echinochloa crus-galli var. crus-galli, herbicidal effect grade” value in [2] was 1 (Herbicidal ratio of 5% or higher and lower than 20%); in [6] it was 4 (Herbicidal ratio of 70% or higher and lower than 90%). In addition, the “I: Avena fatua, herbicidal effect grade” value in the series on Avena fatua is recorded as 0 (Herbicidal ratio of 5% or lower (almost no effect)). Moreover, the “K: Lolium multiflorum Lam., herbicidal effect grade” value in the series on Lolium multiflorum Lam. [3] was 4 (Herbicidal ratio of 70% or higher and lower than 90%); with Lolium multiflorum Lam. [7], 5 (Herbicidal ratio of 90% or more (almost completely withered)). The “L: Apera spica-venti” value was 4 (Herbicidal ratio of 70% or higher and lower than 90%) with Apera spica-venti [4]; 2 (Herbicidal ratio of 20% or higher and lower than 40%) in the series with Apera spica-venti [8]. Further, the “O: Chenopodium album” value in the series with Chenopodium album was 0 (Herbicidal ratio of 5% or lower (almost no effect)). The “P: Stellaria media” value in the series with Stellaria media [5] and in the series on Stellaria media [9] was 0 (Herbicidal ratio of 5% or lower (almost no effect)) throughout. In the series with Veronica persica, the “R: Veronica persica” value is 0 (Herbicidal ratio of 5% or lower (almost no effect)). In the series with soybean, the “d: soybean, effect on crop grade” value is given as 0 (Herbicidal ratio of 5% or lower (almost no effect)). For the same compound, in the series on rice, the “b: directly sowed rice plant” value was 5 (Herbicidal ratio of 90% or more (almost completely withered)). The “g: rapeseed, effect on crop grade” value with rapeseed is 0 (Herbicidal ratio of 5% or lower (almost no effect)).
